Source: patent US9938560B2, “Methods for identifying modulators of Ras using nonlinear techniques” (Biodesy, Inc., priority 2012, dated 2018)

Tests used:
wt H-Ras = molecular target: T1, wt H-Ras (Homo sapiens, UniProt P01112); assay: SHG detection of conformational change of labeled wt H-Ras tethered to a supported lipid bilayer; assay type: binding; details: cysteine-labeled H-Ras, serial dilutions, n=3; read-out: EC50 from SHG concentration response curve
T1 construct: fused on or other part: N-terminal 6x histidine tag, used to tether to Ni-NTA lipids; PyMPO-maleimide dye on native cysteine(s)
Experimental: Recombinant His-tagged (N-terminus) H-Ras protein was prepared according to standard protocols (6). The Ras protein prepared according to this protocol is bound to GDP. The protein was then labeled with PyMPO-maleimide, a cysteine-reactive dye in 0.1 M Tris pH 8.0, 20 mM NaCl, 0.5 mM TCEP, 5% glycerol and a 12:1 dye:protein ratio for one hour at room temperature. Unreacted dye was purified away by gel filtration. The resulting dye:protein ratio was 0.7:1 was determined spectrophotometrically. Cysteine-labeled Ras was then coupled directly to the membrane.
We labeled Ras using a standard protocol in pH 8.3 sodium bicarbonate buffer (Invitrogen, Inc.) and purified it by gel filtration and dialysis. Amine-labeled Ras was then coupled directly to the membrane.
Immediately before applying DOPC/DGS NTA (Ni) lipids, microscope slides were cleaned with Piranha wash for 20 minutes. […] Lateral mobility of the bilayers was confirmed by fluorescence recovery after photobleaching as known in the art. […]
PyMPO-SE was coupled to His-tagged wt K-Ras (Novus) using one of two protocols. […] The resulting dye:protein ratio was 0.7:1 as determined spectrophotometrically. […]
PyMPO-SE exposed to a blank bilayer (no protein) followed by washing led to no signal above background. Thus, the signal detected in the presence of protein after labeling is due to labeling of the protein itself while immobilized on the membrane. […]

G12V K-Ras = molecular target: T2, G12V K-Ras (Homo sapiens, UniProt P01116, G12V); assay: SHG detection of structural change of constitutively active G12V K-Ras; assay type: binding; details: 10 μM; PyMPO-maleimide at Cys 118; FIG. 6B
T2 construct: made in house
Experimental: PyMPO-SE is coupled to a G12V constitutively active mutant K-Ras (Abrams et al., Semin Oncol. 1996 February; 23(1):118-34) using one of the two protocols described in Example 3 above. Recombinant His-tagged (N-terminus) Ras proteins are prepared according to standard protocols (Hall et al., 2002, Proc. Nat. Acad. Sci., U.S.A., 99(19):12138-42). The Ras proteins prepared according to this protocol is bound to an SHG-active GTP analog (ATTO-390-GTP) or an SHG label is coupled to Cys 118 with PyMPO-maleimide, a cysteine-reactive dye in 0.1 M Tris pH 8.0, 20 mM NaCl, 0.5 mM TCEP, 5% glycerol and a 12:1 dye:protein ratio for one hour at room temperature. Unreacted dye is purified away by gel filtration. The resulting dye:protein ratio is determined spectrophotometrically.
Immobilized G12V mutant K-Ras is then exposed to compound 117028, which has been previously shown to decrease intracellular levels of GTP-bound K-RAS as well as to decrease activation of the Raf/Mek/Erk signaling pathway (Grant et al., 2011, PLoS One, 6(10):e25711, the disclosure of which is incorporated by reference herein). 10 μM of the compound in assay buffer is added over the wells followed by gentle mixing. Assay buffer was 20 mM Tris pH 8.0, 150 mM NaCl, 0.5 mM DTT, 0.15% DMSO. […]

GTP-bound K-RAS = GTP-bound K-RAS (Homo sapiens, UniProt P01116); details: previously shown, Grant et al., 2011; cited from earlier work
[1] = test system: Raf/Mek/Erk signaling pathway; details: previously shown, Grant et al., 2011; cited from earlier work
Protein X [2] = assay: SHG (Biodesy) titration of ligands on Protein X bound to a supported lipid bilayer; assay type: binding; details: Protein X on SLB; endpoint mode after 3 minutes of exposure; average of different days
Experimental: PyMPO-SE is coupled to His-tagged Protein X using the protocol described in the above Examples. Unreacted dye is purified by gel filtration. The resulting dye:protein ratio is determined spectrophotometrically. The supported bilayer membrane with Ni-NTA lipid is prepared as described in the Examples above. Recombinant His-tagged Protein X is incubated with the lipid bilayer at 5 μM for 20 minutes to produce a baseline signal following wash-out of unbound Protein X. A single ligand (denoted 3, 4 or 5) is exposed to Protein X on the surface and changes to the baseline SHG signal are measured in real time. A titration of the shift in SHG signal for each of the ligands as a function of ligand concentration is performed in endpoint mode, comparing the SHG signal after 3 minutes of exposure to the ligand at a given concentration to the baseline signal before exposure to the ligand.

Protein X [3] = assay: Biacore binding to Protein X
Protein X [4] = assay: IC50 result for Protein X (independent biochemical assay)

T2 sequence (P01116 1-188 isoform P01116-2 G12V): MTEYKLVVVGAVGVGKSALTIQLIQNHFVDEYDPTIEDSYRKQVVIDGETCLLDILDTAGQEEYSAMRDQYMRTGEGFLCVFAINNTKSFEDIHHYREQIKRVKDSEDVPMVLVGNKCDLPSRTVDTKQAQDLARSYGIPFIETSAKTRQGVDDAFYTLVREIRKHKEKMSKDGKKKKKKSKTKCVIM
GTP-bound K-RAS, sequence (P01116 1-188 isoform P01116-2): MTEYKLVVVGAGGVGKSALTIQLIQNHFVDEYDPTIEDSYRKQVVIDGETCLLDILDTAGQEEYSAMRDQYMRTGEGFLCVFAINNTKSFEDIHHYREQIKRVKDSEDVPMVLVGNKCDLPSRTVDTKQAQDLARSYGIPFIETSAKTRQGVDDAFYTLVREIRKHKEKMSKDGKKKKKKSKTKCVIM
T1 sequence (P01112 whole entry, the tested form may be a part): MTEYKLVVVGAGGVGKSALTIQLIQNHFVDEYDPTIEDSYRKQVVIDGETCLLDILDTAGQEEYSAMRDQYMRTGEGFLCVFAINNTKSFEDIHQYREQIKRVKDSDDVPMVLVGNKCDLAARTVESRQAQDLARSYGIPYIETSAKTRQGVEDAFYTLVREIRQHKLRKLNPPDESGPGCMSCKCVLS

Structure (SMILES)	EC50 (wt H-Ras) [µM]	effect on the conformation of G12V K-Ras (SHG), protein labeled at Cys 118 (G12V K-Ras)	intracellular levels of GTP-bound K-RAS (GTP-bound K-RAS)	activation of the Raf/Mek/Erk signaling pathway [1]	EC50 (Protein X [2]) [µM]	Biacore Result (Protein X [3])	IC50 (Protein X [4]) [µM]
Oc1c(CN2CCN(c3ccccc3)CC2)cc(Br)c2cccnc12 [Compound 1, 5-bromo-7-[(4-phenylpiperazin-1-yl)methyl]quinolin-8-ol]	4.4	significant effect	decrease	decrease	–	–	–
O=C(CN1CCOCC1)NC1=Nc2ncccc2C(=O)NN1 [Compound 3]	–	–	–	–	0.67	Binds	0.95
